Assays:
human tumor cell lines = assay: antiproliferative activity in human tumor cell lines; type: cell-based; conditions: broad range of human tumor cell lines, including NSCLC, fibrosarcoma, glioblastoma, erythroleukemia, prostate, colon, ovarian, endometrial and breast cancers
[1] = test system: human tumor cell line xenografts; assay: murine tumor xenograft models utilizing human tumor cell lines; type: in vivo; conditions: xenografts representing glioblastoma, prostate, breast, lung, colon and pancreatic cancers
[2] = test system: NSCLC cell lines (KRAS mutant and KRAS wild-type); assay: panel of more than 100 NSCLC cell lines; type: cell-based
H2122 = assay: KRAS mutant NSCLC xenograft H2122; type: in vivo
A549 = assay: KRAS mutant NSCLC xenograft A549; type: in vivo
[3] = test system: several tumor types, such as sarcomas; assay: clinical development in advanced cancers; type: in vivo
side effects in patients = type: in vivo; conditions: onset as early as first week of treatment
[4] = test system: PTEN-deficient tumor cell lines; conditions: PTEN-deficient lines including glioblastoma, prostate, breast, pancreas, lung and colon; cited from earlier work

With CO[C@H]1C[C@@H]2CC[C@@H](C)[C@@](O)(O2)C(=O)C(=O)N2CCCCC2C(=O)O[C@H]([C@H](C)C[C@@H]2CC[C@H](OP(C)(C)=O)[C@H](OC)C2)CC(=O)[C@H](C)/C=C(\C)[C@@H](O)[C@H](OC)C(=O)[C@H](C)C[C@@H](C)/C=C/C=C/C=C/1C (stereo in doubt) [Deforolimus] as the compound, how does the antiproliferative activity (human tumor cell lines) read?
Its antiproliferative activity is “demonstrated antiproliferative activity”.

What about the in vivo activity [1] of the same compound?
The in vivo activity was “demonstrated in vivo activity”.

And the “activity in KRAS mutant versus KRAS wild-type cells” value [2]?
The value was “the same in both KRAS mutant and KRAS wild-type cells”.

What about the anti-tumor activity (H2122) of the same compound?
The anti-tumor activity was “showed anti-tumor activity”.

And the anti-tumor activity (A549)?
The anti-tumor activity was “showed anti-tumor activity”.

And the anti-tumor activity [3]?
Its anti-tumor activity is “evidence of anti-tumor activity”.

What about the side effect (side effects in patients) of the same compound?
The side effect was “mouth sores typically reported as mucositis”.

What about the “metabolism by CYP3A” value (CYP3A) of the same compound?
The value was “extensively metabolized by CYP3A”.

And the antiproliferative activity [4]?
The antiproliferative activity was “demonstrated antiproliferative activity”.
